# How the values were obtained:
# [1] = test system: Escherichia coli IAM-1264; assay: Minimum inhibitory concentration, standard serial dilution method; type: cell-based; details: 37° C.; for MIC: Escherichia coli, IAM1264, 24 h, inoculum size 1.9×10^5, Brain heart infusion broth
# Description: (§1) The minimum inhibitory concentration (mcg/ml) of a variety of the sugar ureide and thioureide derivatives according to this invention against various bacteria was determined in accordance with a standard serial dilution method using as medium Brain heart infusion broth (Difco) at 37° C. the determination being made after 24 hours incubation. The results are shown in Table 1 together with the results of test for ampicillin as reference.
# [2] = test system: Staphylococcus aureus No. 26; assay: as above; type: cell-based; details: 37° C.; for MIC: Staphylococcus aureus, NO.26, 24 h, inoculum size 2.3×10^5, Brain heart infusion broth
# Description: as §1
# [3] = test system: Staphylococcus aureus 209 P; assay: as above; type: cell-based; details: inoculum size 3.8×10^5, Brain heart infusion broth, 37° C., 24 hours; for MIC: Staphylococcus aureus, 209P
# Description: as §1
# [4] = test system: Pseudomonas aeruginosa IAM-1007; assay: as above; type: cell-based; details: 37° C.; for MIC: Pseudomonas aeruginosa, IAM1007, 24 h, inoculum size 1.3×10^5, Brain heart infusion broth
# Description: as §1
# [5] = test system: Salmonella typhi O-901-W; assay: as above; type: cell-based; details: 37° C.; for MIC Salmonella typhi O-901-W: inoculum size 3.5×10^5, Brain heart infusion broth, 24 hours; for MIC: Salmonella enterica, TYPHI, 24 h, inoculum size 3.5×10^5, Brain heart infusion broth
# Description: as §1
# [6] = test system: Klebsiella pneumoniae; assay: as above; type: cell-based; details: 37° C.; for MIC: Klebsiella pneumoniae, 24 h, inoculum size 1.3×10^5, Brain heart infusion broth
# Description: as §1
# [7] = test system: Proteus vulgaris OX 19; assay: as above; type: cell-based; details: 37° C.; for MIC Proteus vulgaris OX 19: inoculum size 1.2×10^5, Brain heart infusion broth, 24 hours; for MIC: Proteus vulgaris, OX19, 24 h, inoculum size 1.2×10^5, Brain heart infusion broth
# Description: as §1
# [8] = test system: mice; assay: LDo value for mice by oral administration; type: in vivo
# [9] = inoculum size 1.3×10^5, Brain heart infusion broth, 24 hours
SMILES,"MIC Escherichia coli IAM-1264 ([1]; inoculum size 1.9×10^5, Brain heart infusion broth, 24 hours) [µg/mL]","MIC Staphylococcus aureus No. 26 ([2]; inoculum size 2.3×10^5, Brain heart infusion broth, 24 hours) [µg/mL]",MIC Staphylococcus aureus 209 P [3] [µg/mL],"MIC Pseudomonas aeruginosa IAM-1007 [4, 9] [µg/mL]",MIC Salmonella typhi O-901-W [5] [µg/mL],"MIC Klebsiella pneumoniae [6, 9] [µg/mL]",MIC Proteus vulgaris OX 19 [7] [µg/mL],MIC [1] [µg/mL],MIC [2] [µg/mL],MIC [3] [µg/mL],MIC [4] [µg/mL],MIC [5] [µg/mL],MIC [6] [µg/mL],MIC [7] [µg/mL],LDo [8] [mg/kg]
"CC(=O)O[C@H]1[C@H](OC(C)=O)[C@@H](NC(=S)N[C@@H](C(=O)N[C@@H]2C(=O)N3[C@@H]2SC(C)(C)[C@@H]3C(=O)O)c2ccccc2)OC[C@H]1OC(C)=O [Example 13, α-(2,3,4-Tri-O-acetyl-α-D-arabinopyranosylthioureido) benzylpenicillin]",> 100,> 100,3.12,> 100,> 100,> 100,25,,,,,,,,
"CC(=O)OC[C@@H](OC(C)=O)[C@@H](OC(C)=O)[C@H](OC(C)=O)[C@@H](OC(C)=O)C(=O)NC(=S)N[C@@H](C(=O)N[C@@H]1C(=O)N2[C@@H]1SC(C)(C)[C@@H]2C(=O)O)c1ccccc1 [Example 17, α-(2,3,4,5,6-Penta-O-acetyl-D-gluconyl-thioureido) benzylpenicillin]",,,,,,,,> 100,> 100,0.78,> 100,50,> 100,1.56,> 1000
"CC(=O)O[C@H]1[C@H](OC(C)=O)[C@@H](NC(=S)N[C@@H](C(=O)N[C@@H]2C(=O)N3[C@@H]2SC(C)(C)[C@@H]3C(=O)O)c2ccccc2)OC[C@H]1OC(C)=O [Example 10, Triethylammonium α-(2,3,4,-tri-O-acetyl-α-D-arabinopyranosylthioureido) benzylpenicillinate]",,,,,6.25,,> 100,50,100,3.12,200,,50,,> 1000
"CC(=O)OC[C@@H](OC(C)=O)[C@@H](OC(C)=O)[C@H](OC(C)=O)[C@@H](OC(C)=O)C(=O)NC(=S)N[C@@H](C(=O)N[C@@H]1C(=O)N2C(C(=O)O)=C(C)CS[C@H]12)c1ccccc1 [Example 28, 7-[D-α-(2,3,4,5,6-penta-O-acetyl-D-gluconylthioureido)-phenylacetamido] -3-methyl-3-cephem-4-carboxylic acid]",,,,,,,,> 100,,12.5,> 100,> 100,> 100,100,> 1000
"CC1(C)S[C@@H]2[C@H](NC(=O)[C@H](N)c3ccccc3)C(=O)N2[C@H]1C(=O)O [Ampicillin, α-aminobenzylpenicillin, reference compound]",,,,,,,,3.12,> 100,0.1,> 100,0.39,1.56,100,> 1000

# Source: patent US4025622A, “Novel sugar ureide and thioureide derivatives” (Ogura; Haruo, priority 1974, dated 1977)
